Experiments:
LV, SP and LNs = experiment: Whole organ transcriptome across organs (adjuvant gene space): gene responses and adjuvant grouping; format: in vivo, C57BL/6 mice; details: for adjuvant group (cluster) within the adjuvant gene space: hierarchical clustering, LV, SP and/or LNs; for gene expression changes in LV and SP: Table 15, route not given; for distribution/strength of gene responses between local LNs and systemic organs (LV, SP): 6 h after i.d. (local) administration
circulating blood cells = experiment: Hematological cell count of peripheral blood 6 h after adjuvant administration (VetScan HMII); format: in vivo, C57BL/6 mice
Description: Take about 200 μL of blood from the retro-orbital venous plexus with a non-heparinized capillary tube and place the blood into a 1.5 mL tube comprising 2 μL of 10% EDTA-2K for hematological testing. Thoroughly mix the sample by gentle tapping. Stored at room temperature until hematological testing.
The hematological cell count was found using VetScan HMII (Abaxis). 50 μl of EDTA-2K blood sample was diluted by adding 250 μl of saline. Measurements are taken with VetScan HMII by following the instruction.
In a preliminary experiment, FCA and ALM were tested at different points up to 72 hours. […] At 6 hours after adjuvant administration, LV, SP, and LN (both sides) were removed to study the gene expression thereof by using Affimetrix Genechip microarray system (Affymetrix). The sampled organs were each placed in a tube containing RNAlater. The tube was maintained at 4° C. overnight, and stored at −80° C. until use. Blood was also collected after 6 hours from adjuvant administration for general hematological testing. About 200 μL of blood was taken from the retro-orbital venous plexus with a non-heparinized capillary tube and placed into a 1.5 mL tube comprising 2 μL of 10% EDTA-2K for hematological testing. The hematological cell count was found using VetScan HMII (Abaxis). 50 μl of EDTA-2K blood sample was diluted by adding 250 μl of saline. Measurements were taken with VetScan HMII by following the instruction.
The effect of adjuvant administration with respect to the changes in several hematological parameters was investigated. The following parameters were studied: white blood cells (WBC), lymphocytes (LYM), monocytes (MON), granulocytes (GRA), relative (%) content of lymphocytes (LY %), relative (%) content of monocytes (MO %), relative (%) content of granulocytes (GR %), red blood cells (RBC), hemoglobins (Hb, HGB), hematocrits (HCT), mean corpuscular volume (MCV), mean corpuscular hemoglobins (MCH), mean corpuscular hemoglobin concentration (MCHC), red blood cell distribution width (RDW), platelets (PLT), platelet concentration (PCT), mean platelet volume (MPV), and platelet distribution width (PDW).

[1] = peripheral blood 6 h after administration

Molecule	adjuvant group (cluster) within the adjuvant gene space (LV, SP and LNs)	monocytosis (monocytes in blood) (circulating blood cells; [1])	distribution/strength of gene responses between local LNs and systemic organs (LV, SP) (LV, SP and LNs)	other results
Cc1ccc2c(=O)c3cccc(CC(=O)O)c3oc2c1C [DMXAA, 5,6-dimethylxanthenone-4-acetic acid]	group (G) 1	–	–	–
CCOCc1nc2c(N)nc3ccccc3c2n1CC(C)(C)O [R848, 4-amino-2-(ethoxymethyl)-a,a-dimethyl-1H-imidazo[4,5-c]quinoline-1-ethanol]	–	–	–	leukopenia (circulating blood cells; [1]): caused leukopenia; lymphopenia (circulating blood cells; [1]): strongly induced
CC(O)COC[C@H]1O[C@@H]2O[C@H]3[C@H](O)[C@@H](O)[C@@H](O[C@H]4[C@H](O)[C@@H](O)[C@@H](O[C@H]5[C@H](O)[C@@H](O)[C@@H](O[C@H]6[C@H](O)[C@@H](O)[C@@H](O[C@H]7[C@H](O)[C@@H](O)[C@@H](O[C@H]8[C@H](O)[C@@H](O)[C@@H](O[C@H]1[C@H](O)[C@H]2O)O[C@@H]8COCC(C)O)O[C@@H]7COCC(C)O)O[C@@H]6COCC(C)O)O[C@@H]5COCC(C)O)O[C@@H]4COCC(C)O)O[C@@H]3COCC(C)O (stereo partly drawn) [bCD, Hydroxypropyl-beta-cyclodextrin]	G2	clearly induced	–	gene expression changes in LV and SP (LV, SP and LNs; 6 h): relatively weaker responses
Nc1nc2c(ncn2[C@@H]2O[C@@H]3COP(=O)(O)O[C@H]4[C@@H](O)[C@H](n5cnc6c(N)ncnc65)O[C@@H]4COP(=O)(O)O[C@@H]2[C@@H]3O)c(=O)[nH]1 [cGAMP, Cyclic [G(2′,5′)pA(3′,5′)p]]	group (G) 1	clearly induced	–	–
Nc1nc2c(ncn2[C@@H]2O[C@@H]3COP(=O)(O)O[C@H]4[C@@H](O)[C@H](n5cnc6c(=O)[nH]c(N)nc65)O[C@@H]4COP(=O)(O)O[C@H]3[C@H]2O)c(=O)[nH]1 [cdiGMP, Cyclic diguanylate monophosphate]	group (G) 1	clearly induced	–	–
D35: A class CpG ODN (5′-GGTGCATCGATGCAGGGGGG-3′), TLR9 ligand (DNA GGTGCATCGATGCAGGGGGG; chemistry not given here)	G5	–	acted on local LNs but not in the systemic remote organs	–
K3: B class CpG ODN (ATCGACTCTCGAGCGTTCTC), TLR9 ligand (chemistry not given here)	G5	–	acted on local LNs but not in the systemic remote organs	gene expression changes in LV and SP (LV, SP and LNs; 6 h): relatively weaker responses
Monophosphoryl lipid A [MPLA]	–	clearly induced	acted on local LNs but not in the systemic remote organs	consistency of gene responses among individual mice and organs (LV, SP and LNs; 6 h, FIG. 5): varying gene responses among the individual mice and organs
heptanoyl-γ-D-glutamyl-(L)-meso-diaminopimelyl-(D)-alanine [FK565]	G3	–	greater responses in LV and SP than in LNs	granulocytosis (granulocytes in blood) (circulating blood cells; mouse, in vivo): caused granulocytosis; leukopenia (circulating blood cells; mouse, in vivo): caused leukopenia; lymphopenia (circulating blood cells; mouse, in vivo): strongly induced

Reference: patent US20230021483A1, “[…] […] METHOD AND CLASSIFICATION OF PHARMACEUTICAL COMPONENTS BY USING TRANSCRIPTOMES” (National Institutes of Biomedical Innovation, Health and …, priority 2016, published 2023)
